Results reported in patent publication US20240091294A1, “Extract of Top Growth of Holy Basil, and Cosmetic or Dermatological Compositions Containing Same” (Laboratoires Expanscience, priority 2021, published 2024).

Assays:
normal human fibroblasts [1] = assay: Glutathione (GSH) content in fibroblasts under menadione stress; format: cell-based; details: 10 mM, 24 h; Menadione 25 μM 4 h
Protocol: Normal human fibroblasts were treated for 24 hours with 0.001% and 0.005% dm holy basil extract obtained according to Example 1 or with the antioxidant reference, 10 mM NAC. Oxidative stress was then induced by 4-hour incubation in the presence of 25 μM menadione. GSH stock was monitored using the fluorescent probe Monochlorobimane (Mbi); intracellular fluorescence, proportional to the amount of GSH, was measured.

[2] = test system: normal human keratinocytes; assay: Menadione-induced ROS production in keratinocytes; format: cell-based; details: 10 mM, 24 h, Menadione 50 μM
Protocol: (§1) Normal human keratinocytes, on the one hand, and normal human fibroblasts, on the other, were treated for 24 hours with the 0.001% and 0.005% dry matter (dm) holy basil extract obtained according to Example 1 or with 10 mM N-Acetyl Cysteine (NAC), a ROS scavenger molecule used as an antioxidant reference. […] ROS were labeled with the CellRox® probe; intracellular fluorescence, proportional to the amount of ROS, was measured. Results were statistically analyzed using a one-factor ANOVA, followed by a Dunnett's test.

normal human fibroblasts [3] = assay: Menadione-induced ROS production in fibroblasts; format: cell-based; details: 10 mM, 24 h, Menadione 200 μM
Protocol: as §1

[4] = test system: normal human epidermal keratinocytes; assay: γH2AX expression (DNA double-strand breaks) in keratinocytes under camptothecin stress; format: cell-based; details: reference, 24 h pre-incubation; camptothecin 1 h
Protocol: Normal human epidermal keratinocytes were pre-incubated for 24 hours in the presence of the holy basil extract obtained in Example 1 at 0.001% and 0.005% dm or the reference nicotinamide, prior to 1-hour exposure to camptothecin. Camptothecin is a genotoxic compound, a toposiomerase I inhibitor, used for the induction of DNA double-strand breaks. Double-strand breaks were detected by immunostaining of γH2AX (phosphorylation of histone H2AX which intervenes early in response to double-strand breaks) and quantified by image analysis. Results were statistically analyzed using an ANOVA followed by a Tukey test.

[5] = test system: normal human keratinocytes; assay: H2O2-induced ROS production in normal human keratinocytes; format: cell-based; details: 24 h, H2O2 100 μM 20 min
Protocol: Quercetin at 10 μM or Vitamin C at 500 μM, before incorporation of the H2DCF-DA probe. Keratinocytes were then stimulated with 100 μM hydrogen peroxide (H2O2) for 20 minutes. ROS production was assessed by measuring the fluorescence emitted by the probe on contact with ROS. Results were statistically analyzed using a one-way ANOVA followed by a Tukey test.

[6] = test system: normal human epidermal keratinocytes; assay: Aquaporin-3 production in keratinocytes (immunostaining); format: cell-based; details: reference, 24 h
Protocol: Normal human epidermal keratinocytes were incubated for 24 hours in the presence of the holy basil extract obtained in Example 1 at 0.001% and 0.005% dm or retinoic acid, positive reference. Aquaporin-3 expression was assessed by immunostaining and quantified by image analysis.

reconstructed epidermis = assay: IL1α produced by PMA-stimulated reconstructed epidermis; format: cell-based, human; details: systemic, 24 h pre-incubation, PMA 0.5 μg/ml 24 h
Protocol: […] After 24 hours pre-incubation, the epidermis was stimulated with 0.5 μg/mL PMA and incubated again for 24 hours.
Culture supernatants were collected, an IL1α assay was performed on the one hand and, on the other, these supernatants (conditioned media) were plated onto cultures of normal human dermal fibroblasts.
Results were statistically analyzed using an ANOVA followed by a Tukey test.

[7] = test system: normal human keratinocytes; assay: IL8 produced by keratinocytes under PMA-induced inflammatory stress (ELISA); format: cell-based; details: 24 h pre-incubation, PMA 10 μg/ml 24 h
Protocol: Normal human keratinocytes were pre-incubated for 24 hours in the presence of holy basil extract obtained according to Example 1 at 0.001%, 0.005% or 0.01% dm or dexamethasone at 0.1 μM, an anti-inflammatory reference. The cells were then stimulated by 24-hour treatment in the presence of 10 μg/mL PMA (Phorbol-Myristate-Acetate).
At the end of treatment, the IL8 produced was quantified by ELISA assay in the culture supernatants.
Results were analyzed statistically using the Student t-test.

[8] = test system: normal human dermal fibroblasts; assay: Gene expression of dermal matrix markers in fibroblasts (qPCR); format: cell-based; details: 5 ng/ml, 48 h
Protocol: Normal human dermal fibroblasts were incubated for 48 hours in the presence of holy basil extract obtained according to Example 1 at 0.001% and 0.005% dm or TGFβ1 at 5 ng/ml, the positive assay reference.
Gene expression of Collagen I, Elastin, Dermatopontin and MMP1 (Matrix-Metalloproteinase-1) was assessed by real-time quantitative PCR.
Results were statistically analyzed using a one-factor analysis of variance (ANOVA), followed by a Dunnett's post-test.

normal human fibroblasts [9] = assay: Lipid peroxidation in fibroblasts under cumene hydroperoxide stress; format: cell-based; details: 200 μM, 24 h, Cumene 50 μM
Protocol: (§2) Normal human keratinocytes, on the one hand, and normal human fibroblasts, on the other, were treated for 24 hours with the 0.001% and 0.005% dm holy basil extract obtained according to example 1 or with the antioxidant reference, vitamin E at 200 μM. Oxidative stress was then induced by incubation for 1 hour in the presence of cumene hydroperoxide at 200 or 50 μM.
(§3) Results were statistically analyzed using a one-way ANOVA followed by a Tukey test.

[10] = test system: normal human keratinocytes; assay: Lipid peroxidation in keratinocytes under cumene hydroperoxide stress; format: cell-based; details: 200 μM, 24 h, Cumene 200 μM
Protocol: as §2, §3

Compound: CC(=O)N[C@@H](CS)C(=O)O [NAC, N-Acetyl Cysteine]
- GSH (Arbitrary units) (normal human fibroblasts [1]): 4997.7 ± 947.2 Arbitrary units
- Increase of GSH (normal human fibroblasts [1]): 44%
- ROS (Arbitrary units) [2]: 2490 ± 94.3 Arbitrary units
- inhibition at 10000 µM ([2]; Homo sapiens, Keratinocyte): 100%
- ROS (Arbitrary units) (normal human fibroblasts [3]): 3114 ± 14.2 Arbitrary units
- inhibition at 10000 µM (normal human fibroblasts [3]; Homo sapiens, Fibroblast): 50%

Compound: NC(=O)c1cccnc1 [Nicotinamide, nicotinamide]
- Inhibition of γH2AX expression [4]: −106%
- γH2AX, Cy5 (Intensity) [4]: 3052.8 Intensity

Compound: O=c1c(O)c(-c2ccc(O)c(O)c2)oc2cc(O)cc(O)c12 [Quercetin]
- ROS (Fluorescence units) ([5]; 10 μM): 17453.8 ± 2880.6 Fluorescence units
- inhibition at 10 µM ([5]; Homo sapiens, Keratinocyte, 10 μM): 85%

Compound: CC1=C(/C=C/C(C)=C/C=C/C(C)=C/C(=O)O)C(C)(C)CCC1 [Retinoic acid, retinoic acid]
- Aquaporin-3 (% of positive cells) [6]: 0.323 ± 0.004 % of positive cells
- Increase of Aquaporin-3 [6]: +45%

Compound: O=C1O[C@H]([C@@H](O)CO)C(O)=C1O [Vitamin C]
- ROS (Fluorescence units) ([5]; 500 μM): 7165.2 ± 586.2 Fluorescence units
- inhibition at 500 µM ([5]; Homo sapiens, Keratinocyte, 500 μM): 102%

Compound: C[C@@H]1C[C@H]2[C@@H]3CCC4=CC(=O)C=C[C@]4(C)[C@@]3(F)[C@@H](O)C[C@]2(C)[C@@]1(O)C(=O)CO [dexamethasone]
- Interleukine-1 alpha (reconstructed epidermis; 10 μM): 334 ± 41 pg/mL
- inhibition at 10 µM (reconstructed epidermis; Homo sapiens, read-out: Inhibition of IL1α release): 48%
- IL8 ([7]; 0.1 μM): 4194.4 ± 814.1 pg/mL
- inhibition at 0.1 µM ([7]; Homo sapiens, Keratinocyte, read-out: Inhibition of IL8 production): 40%

Compound: TGFB1: TGFβ1 at 5 ng/ml, the positive assay reference
- Collagen I gene expression (Relative quantity) [8]: 10.86 ± 4.17
- Dermatopontin gene expression (Relative quantity) [8]: 43.17 ± 5.97
- Elastin gene expression (Relative quantity) [8]: 67.5 ± 20.55
- MMP1 gene expression (Relative quantity) [8]: 0.33 ± 0.13
- Collagen I gene expression (% of induction) ([8]; vs control cells): +786%
- Dermatopontin gene expression (% of induction) ([8]; vs control cells): +5001%
- Elastin gene expression (% of induction) ([8]; vs control cells): +8148%
- MMP1 gene expression (% of induction) ([8]; vs control cells): −65%

Compound: vitamin E
- Inhibition of lipid peroxidation (normal human fibroblasts [9]): 71%
- Peroxidized lipids (Arbitrary units) (normal human fibroblasts [9]): 11413.4 ± 69.4 Arbitrary units
- Inhibition of lipid peroxidation [10]: 93%
- Peroxidized lipids (Arbitrary units) [10]: 4485.3 ± 43.3 Arbitrary units
